Experimental findings from PubChem BioAssay (NCI) are described below.

Among the test systems are SNB-78 CNS; DLD-1 colon; LXFL 529 NSCLC; RXF-631 renal; XF 498 CNS; KM20L2 colon; DMS 114 small cell lung; DMS 273 small cell lung; MDA-N; SN12K1 renal; P388 leukemia; P388/ADR leukemia.
Experiment in all cases: NCI tumour cell line growth inhibition, 48 h

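Results reflect a 48-hour exposure of cells in 96-well plates to compound at five concentrations. GI50 marks 50% less growth. At the TGI there is no net growth.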 Some results are limits rather than exact numbers.

On to `CC1=C(C(=O)Nc2cc(=O)n(C)c(=O)n2C)C(c2ccc([N+](=O)[O-])cc2)C(C(=O)Nc2cc(=O)n(C)c(=O)n2C)=C(C)N1`, for which the TGI with SNB-78 CNS, with DLD-1 colon, in the assay on LXFL 529 NSCLC, in the assay with RXF-631 renal, in the assay with XF 498 CNS and in the assay with KM20L2 colon was greater than 100 µM throughout. The compound also registered a TGI with DMS 114 small cell lung greater than 100 µM.
For the compound `O=c1cc(-c2ccccc2)oc2cc(O)cc(O)c12`, the TGI in the assay on SNB-78 CNS was 92.5 µM; with LXFL 529 NSCLC, 48.3 µM; in the assay with XF 498 CNS, 44.1 µM; with KM20L2 colon, 53.1 µM; with DMS 114 small cell lung, 58.2 µM; with DMS 273 small cell lung it was 34 µM.
With `CN(CCc1ccccn1)c1nc(=[N+](C)C)ss1`, the TGI in the assay on SNB-78 CNS, with DLD-1 colon, with LXFL 529 NSCLC, with RXF-631 renal, in the assay with XF 498 CNS and with KM20L2 colon was greater than 100 µM in each case. Further, the TGI with DMS 114 small cell lung and in the assay with DMS 273 small cell lung was greater than 100 µM in each case.
In the case of `COc1cc2c(cc1OC)C(OC)N(C)c1c-2ccc2cc3c(cc12)OCO3` (stereo unspecified), the TGI with MDA-N was greater than 75 µM; in the assay with SNB-78 CNS, greater than 75 µM; with DLD-1 colon it was 61.2 µM; in the assay with SN12K1 renal, 2.05 µM; in the assay with XF 498 CNS it was 2.95 µM; in the assay with KM20L2 colon it was 6.5 µM. Further, the TGI was 4.98 µM in the assay with P388 leukemia, 12.3 µM in the assay on DMS 114 small cell lung, 13 µM in the assay on P388/ADR leukemia and 14.4 µM in the assay on DMS 273 small cell lung.
Take `COc1ccc(Cc2cc3c(cc2OCC(=O)O)OCO3)cc1`: the TGI in the assay on DLD-1 colon, in the assay on RXF-631 renal, with KM20L2 colon and with DMS 114 small cell lung was greater than 100 µM each time.
`CC(=O)C1C(=O)NC(=O)C1=O` (stereo unspecified): the TGI in the assay on SNB-78 CNS, with LXFL 529 NSCLC, in the assay on XF 498 CNS, with KM20L2 colon, with DMS 114 small cell lung and in the assay on DMS 273 small cell lung was greater than 100 µM each time.
Consider `CN(C)CCSc1cccc(-c2cc(-c3cccc(SCCN(C)C)c3)nc(SCCN(C)C)n2)c1`, for which the TGI came out at 6.25 µM in the assay with SNB-78 CNS, 25.9 µM with DLD-1 colon, 3.89 µM with LXFL 529 NSCLC and 3.46 µM in the assay on KM20L2 colon.
For the compound `C[C@@H](CN1CC(=O)NC(=O)C1)N1CC(=O)NC(=O)C1`, the TGI in the assay with MDA-N came to 680 µM; in the assay on SNB-78 CNS, 1480 µM; with DLD-1 colon it was 1090 µM; in the assay with SN12K1 renal, 541 µM; in the assay with XF 498 CNS it was 201 µM; in the assay with KM20L2 colon it was 1290 µM. For the same compound, the TGI in the assay on P388 leukemia was 2500 µM; with DMS 114 small cell lung it was 441 µM; in the assay with P388/ADR leukemia, 2180 µM; in the assay with DMS 273 small cell lung, 626 µM.
With `C#CCN(N=O)C(=O)NC(CCCNC(=O)OCc1ccccc1)C(=O)OCc1ccccc1` (stereo unspecified), the TGI was greater than 100 µM in the assay on SNB-78 CNS; greater than 100 µM in the assay with DLD-1 colon; greater than 100 µM with LXFL 529 NSCLC; 60.1 µM with XF 498 CNS; greater than 100 µM with KM20L2 colon; greater than 100 µM in the assay with DMS 114 small cell lung. This compound returned a TGI in the assay with DMS 273 small cell lung greater than 100 µM.
On to `CC(C)C1CC2C(=O)N(c3ccccc3)C(=O)C2c2[nH]c3ccccc3c21` (stereo unspecified), for which the TGI with SNB-78 CNS is 77.3 µM; in the assay on DLD-1 colon, greater than 100 µM; with XF 498 CNS, 54.9 µM; with KM20L2 colon, greater than 100 µM; in the assay on DMS 114 small cell lung it was greater than 100 µM; in the assay with DMS 273 small cell lung, 29.2 µM.
In the assay with MDA-N, `O=C(O)c1cc2ccccc2oc1=O` yielded a TGI greater than 100 µM.
For the compound `O=C1c2ccccc2NC1(c1ccccc1)c1c(-c2ccccc2)[nH]c2ccccc12` (stereo unspecified), the TGI was greater than 100 µM with SNB-78 CNS; greater than 100 µM in the assay with DLD-1 colon; greater than 100 µM in the assay with LXFL 529 NSCLC; greater than 100 µM with RXF-631 renal; 99 µM in the assay on XF 498 CNS; greater than 100 µM in the assay on KM20L2 colon. Besides, the TGI in the assay on DMS 114 small cell lung and in the assay on DMS 273 small cell lung was greater than 100 µM throughout.
On to `CC1=C(C(=O)NCc2ccccc2)C(c2ccc([N+](=O)[O-])cc2)C(C(=O)NCc2ccccc2)=C(C)N1`, for which the TGI in the assay with SNB-78 CNS was greater than 100 µM; in the assay with DLD-1 colon, greater than 100 µM; with LXFL 529 NSCLC it was greater than 100 µM; in the assay with XF 498 CNS, greater than 100 µM; with KM20L2 colon it was 54 µM; in the assay with DMS 114 small cell lung it was greater than 100 µM. For the same compound, in the assay on DMS 273 small cell lung, the TGI was greater than 100 µM.
`Cc1nc(CN2CCCCC2)c(O)c(=O)[nH]1` returned a TGI in the assay with MDA-N greater than 100 µM.
As for `CN(CC#N)C1CCCC[C@H]1O` (stereo partly specified), the TGI in the assay with SNB-78 CNS, in the assay on DLD-1 colon, in the assay with LXFL 529 NSCLC, in the assay on XF 498 CNS, in the assay on KM20L2 colon and with DMS 114 small cell lung was greater than 100 µM in each case. For the same compound, in the assay on DMS 273 small cell lung, the TGI was greater than 100 µM.
For `CN1C(c2ccccc2)CS(=O)(=O)CS1(=O)=O` (stereo unspecified), the TGI with SNB-78 CNS, with DLD-1 colon, with LXFL 529 NSCLC, in the assay on RXF-631 renal, with XF 498 CNS and in the assay with KM20L2 colon was greater than 100 µM each time. For the same compound, the TGI with DMS 114 small cell lung and with DMS 273 small cell lung was greater than 100 µM in each case.
The compound `O=C(/C=N/O)Nc1cc(Cl)c(Cl)cc1Cl` came in with a TGI with MDA-N greater than 100 µM.
Consider `O=C(Cc1csc(-c2nc(CC(=O)NNc3ccccc3)cs2)n1)NNc1ccccc1`, for which the TGI in the assay on SNB-78 CNS is greater than 100 µM; in the assay with DLD-1 colon, greater than 100 µM; in the assay on LXFL 529 NSCLC, greater than 100 µM; in the assay with XF 498 CNS, greater than 100 µM; in the assay on KM20L2 colon, greater than 100 µM; in the assay on DMS 114 small cell lung it was 45.1 µM. The TGI in the assay with DMS 273 small cell lung stood at 34.2 µM.
Consider `CC(=O)[O-].[Mn+3].[O-]c1ccccc1C=NCCN=Cc1ccccc1[O-]`, for which the GI50 in the assay with DLD-1 colon is 56.5 µM; in the assay on LXFL 529 NSCLC, 50.7 µM; in the assay on KM20L2 colon it was 56.2 µM; with DMS 273 small cell lung it was greater than 100 µM. Besides, the TGI with DLD-1 colon, with LXFL 529 NSCLC, in the assay on KM20L2 colon and in the assay with DMS 273 small cell lung was greater than 100 µM in each case.
